According to US20170105926A1, “COMPOSITION COMPRISING EXTRACT OF ALPINE WORMWOOD” (AMOREPACIFIC CORPORATION, priority 2014, published 2017):

Legend:
Format in all cases: cell-based, human
endothelin 1 (EDN1) = test: Endothelin 1 ELISA assay of culture medium; conditions: melanocytes (KaMC) medium, 2 nM substance P; control group = 100%
Experimental: When the density of the melanocytes on the 6-well plate reached about 80% (˜80% confluence), they were incubated for a total of 5 days with 2 nM of stress-inducing substance P (Bachem Fechemikalien, Bubendorf, Switzerland) or the alpine wormwood (Artemisia umbelliformis) extract of Example 1 of different concentrations (0, 0.1, 1, 2 and 5 ppm). The cells not treated with substance P or the alpine wormwood (Artemisia umbelliformis) extract of Example 1 were used as a control group.
The culture medium of the cells treated with the extract in (2) of Test Example 1 were recovered and the amount of endothelin 1 (EDN1) comprised in the medium was measured at 450 nm using the human total endothelin ELISA kit (MyBioSource, USA).
Endothelin content (%)=(Absorbance/Total protein content)×100 [Equation 1]

EDN1 (endothelin 1) gene = test: Gene expression assay by real-time PCR (EDN1); conditions: melanocytes (KaMC), 2 nM substance P, 5 days; control group = 1
Experimental: (§1) Melanocytes (KaMC) (KCTC 12015BP) deposited in the Korean Collection for Type Culture (KCTC) were cultured in M-254 medium (Gibco BRL, NY, USA) supplemented with Human Melanocyte Growth Supplement (HMGS; Gibco BRL, NY, USA) on a 6-well plate, while changing the medium every other day, in a 5% CO2 incubator at 37° C. until the cells occupied 95% of the plate area (95% confluence). […] The cells not treated with substance P or the alpine wormwood (Artemisia umbelliformis) extract of Example 1 were used as a control group. After removing the medium form the melanocytes cultured on the 6-well plate, the cells were washed 2 times with cold phosphate-buffered saline (PBS) and the remaining water was completely removed. […] 1 μL of the RNA was quantified using Synergy II (Biotek, USA). […] After adding 10 μL of Taqman Gene Expression Master Mix (Life Technologies, USA) and 1 μL of Assays-on-DemandTM (Life Technologies, USA) of NK1R (ACCESSION: NM_001058) and EDN1 (ACCESSION: NM_001168319) genes to 9 μL of the diluted cDNA, the expression of the genes was analyzed by relative quantification using 7500 Fast Real-Time PCR (Life Technologies, USA) with glyceraldehyde 3-phosphate dehydrogenase (GAPDH, ACCESSION: NM001256799) as a control gene. […]

[1] = tested on: NK1R (neurokinin 1 receptor) gene; test: Gene expression assay by real-time PCR (NK1R); conditions: melanocytes (KaMC), 2 nM substance P, 5 days; control group = 1
Experimental: as §1

With CSCC[C@H](NC(=O)[C@H](CC(C)C)NC(=O)CNC(=O)[C@H](Cc1ccccc1)NC(=O)[C@H](Cc1ccccc1)NC(=O)[C@H](CCC(N)=O)NC(=O)[C@H](CCC(N)=O)NC(=O)[C@@H]1CCCN1C(=O)[C@H](CCCCN)NC(=O)[C@@H]1CCCN1C(=O)[C@@H](N)CCCN=C(N)N)C(N)=O [substance P] as the compound, how does the “content of endothelin 1 (absorbance/total protein content x 100)” value (endothelin 1 (EDN1)) read?
The value was 124%.

What about the “expression of the EDN1 gene (relative quantification vs GAPDH)” value (EDN1 (endothelin 1) gene) of the same compound?
The value was 3.6.

What about the “expression of the NK1R gene (relative quantification vs GAPDH)” value [1] of the same compound?
The value was 4.2.
